We go through 69 sequences from the OligoGym collection.

Several values for one entry are separate records, joined by “and”; a condition that tells them apart may be missing. Equal values may be shown once. After the bases stand the sugars from the 5' end (letter, count) and the backbone: PS all phosphorothioate, else s phosphorothioate and o phosphodiester by linkage. Methylation of C is not given here. e = 2'-O-(2-methoxyethyl) (MOE); k = constrained ethyl (cEt); d = 2'-deoxy (DNA)

The series concerns the target SOD1. Conditions: ASO.

For the sequence “GATACATTTCTACAGC (sugars kekeddddddddekek, linkages s1 o3 s8 o1 s2)”, the target mRNA inhibition by setting is: (A431, 0.12 µM) 12%; (A431, 0.6 µM) 22%; (A431, 3 µM) 21%; (A431, 15 µM) 34%; (HepG2, 0.222 µM) 54%; (HepG2, 0.667 µM) 78%. For the same sequence, the target mRNA inhibition was determined as 89% (HepG2, 2 µM) and 96% (HepG2, 6 µM). Under “HepG2, 5 µM”, “ATCTTCCAAGTGATCAT (sugars e2 k2 d9 k2 e2, PS)” registered a target mRNA inhibition of 38%. With “TTCCGAGGACTGCAACGGAA (sugars e5 d10 e5, PS)”, the target mRNA inhibition (HepG2, 4 µM) stood at 5%.

Consider “CACTACAGGTACTTTAA (sugars e2 k2 d8 k2 e3, PS)”, for which, under “HepG2, 5 µM”, the target mRNA inhibition came to 27%. On to “AGTGTTTAATGTTTATC (sugars e3 k2 d7 k2 e3, PS)”, for which the target mRNA inhibition was 52% (HepG2, 0.1875 µM); 78% (HepG2, 0.75 µM); 67% and 86% (HepG2, 3 µM); 85% (HepG2, 12 µM). “AATCTTCCAAGTGATCA (sugars e2 k2 d9 k2 e2, PS)” came in with a target mRNA inhibition (HepG2, 5 µM) of 38%.

As to “CTCAGACTACATCCAAG (sugars e2 k2 d9 k2 e2, PS)”, the target mRNA inhibition was 0% (HepG2, 0.1875 µM); 40% (HepG2, 0.75 µM); 78% (HepG2, 3 µM); 76% (HepG2, 4 µM); 92% (HepG2, 12 µM). The sequence “TCTGTGATTTAAGTCTG (sugars e2 k2 d9 k2 e2, PS)” came in with a target mRNA inhibition (HepG2, 5 µM) of 49%. “TTTAATACCCATCTGTG (sugars e3 k2 d7 k2 e3, PS)” showed a target mRNA inhibition (HepG2, 3 µM) of 0%. Consider “CATCTGTGATTTAAGTC (sugars e2 k2 d8 k2 e3, PS)”, for which, under “HepG2, 5 µM”, the target mRNA inhibition came to 42%. As to “GTCGCCATAACTCGCTAGGC (sugars e5 d10 e5, PS)”, the target mRNA inhibition is 10% (HepG2, 0.1875 µM); 21% (HepG2, 0.75 µM); 39% (HepG2, 3 µM); 40% (HepG2, 4 µM); 90% (HepG2, 12 µM).

On to “ATCTGCTTTTTCATGGA (sugars e3 k2 d7 k2 e3, PS)”, for which the target mRNA inhibition (HepG2, 3 µM) came out at 42%. In turn, “TTTCTCACTACAGGTAC (sugars e2 k2 d9 k2 e2, PS)” displayed a target mRNA inhibition (HepG2, 5 µM) of 45%.

With “TGGTCTCCTGAGAGTGAGAT (sugars e5 d10 e5, PS)”, the target mRNA inhibition (HepG2, 5 µM) was 24%.

For the setting “HepG2, 3 µM”, “TTATTGGGCGATCCCAA (sugars e3 k2 d7 k2 e3, PS)” yielded a target mRNA inhibition of 15%. As to “TAAGTCTGGCAAAATAC (sugars e3 k2 d7 k2 e3, PS)”, the target mRNA inhibition (HepG2, 3 µM) turned out to be 4%.

In the case of “AAGTCATCTGCTTTTTC (sugars e3 k2 d7 k2 e3, PS)”, the target mRNA inhibition (HepG2, 3 µM) amounted to 83%.

In the case of “AGGGTTTTTATTCACAG (sugars e3 k2 d7 k2 e3, PS)”, the target mRNA inhibition (HepG2, 3 µM) was 24%. “CTGACAAGTTTAATACC (sugars e2 k2 d9 k2 e2, PS)” returned a target mRNA inhibition (HepG2, 5 µM) of 36%. In the case of “ACAGGGTTTTTATTCAC (sugars e2 k2 d8 k2 e3, PS)”, under “HepG2, 5 µM”, the target mRNA inhibition worked out at 29%. As to “TCATCCTTTGGCCCACC (sugars e3 k2 d7 k2 e3, PS)”, the target mRNA inhibition (HepG2, 3 µM) is 27%. For the setting “HepG2, 5 µM”, “TTATTCACAGGCTTGAA (sugars e2 k2 d9 k2 e2, PS)” showed a target mRNA inhibition of 30%.

In the case of “CTACAGGTACTTTAAAG (sugars e2 k2 d9 k2 e2, PS)”, the target mRNA inhibition (HepG2, 5 µM) turned out to be 16%. As to “GAACATGGAATCCATGC (sugars e3 k2 d7 k2 e3, PS)”, the target mRNA inhibition (HepG2, 3 µM) is 9%. “TTCTACAGCTAGCAGGATAA (sugars e5 d10 e5, PS)” returned a target mRNA inhibition (HepG2, 2 µM) of 50%. “ACGACGCAAACCAGCACCCC (sugars e5 d10 e5, PS)” had a target mRNA inhibition (HepG2, 4 µM) of 30%. For the setting “HepG2, 3 µM”, “TGCCTCTCTTCATCCTT (sugars e3 k2 d7 k2 e3, PS)” came in with a target mRNA inhibition of 6%. In turn, “GCAAAATACAGGTCATT (sugars e3 k2 d7 k2 e3, PS)” showed a target mRNA inhibition (HepG2, 3 µM) of 43%. Take “CCAAGGGAATGTTTATT (sugars e2 k2 d9 k2 e2, PS)”: the target mRNA inhibition (HepG2, 4 µM) amounted to 52%. For the sequence “CCAAGTGATCATAAATCAGT (sugars e5 d10 e5, PS)”, for the setting “HepG2, 5 µM”, the target mRNA inhibition stood at 39%.

Turning to “CAGCTAGCAGGATAACA (sugars e3 k2 d7 k2 e3, PS)”, the target mRNA inhibition (HepG2, 3 µM) came out at 21%. Where the note is “HepG2, 5 µM”, “GACCACCAGTGTGCGGCCAA (sugars e5 d10 e5, PS)” registered a target mRNA inhibition of 16%. In turn, “TTAATGTTTATCAGGAT (sugars ekekddddddddeeeee, linkages s1 o2 s9 o2 s2)” showed a target mRNA inhibition (A431, 0.062 µM) of 6%; a target mRNA inhibition (A431, 0.185 µM) of 21%; a target mRNA inhibition (A431, 0.556 µM) of 44%; a target mRNA inhibition (A431, 1.667 µM) of 76%; a target mRNA inhibition (A431, 5 µM) of 68%; a target mRNA inhibition (A431, 15 µM) of 77%. Moreover, the target mRNA inhibition runs as follows: (SH-SY5Y, 0.062 µM) 0%; (SH-SY5Y, 0.185 µM) 0%; (SH-SY5Y, 0.556 µM) 34%; (SH-SY5Y, 1.667 µM) 61%; (SH-SY5Y, 5 µM) 81%; (SH-SY5Y, 15 µM) 90%.

Sequence “TGACAAGTTTAATACCC (sugars e3 k2 d7 k2 e3, PS)” came in with a target mRNA inhibition (HepG2, 3 µM) of 27%.

“TTAATGTTTATCAGGAT (sugars e2 k2 d8 k2 e3, PS)”: the target mRNA inhibition is 50% (HepG2, 0.1875 µM); 86% (HepG2, 0.75 µM); 90% (HepG2, 3 µM); 90% (HepG2, 4 µM); 97% (HepG2, 12 µM). In the case of “GCGCCTCGCCCACTCTGGCC (sugars e5 d10 e5, PS)”, the target mRNA inhibition (HepG2, 4 µM) was 33%.

Where the note is “HepG2, 5 µM”, “CCATCTGTGATTTAAGT (sugars e2 k2 d8 k2 e3, PS)” registered a target mRNA inhibition of 46%. In the case of “CATCCAAGGGAATGTTT (sugars e3 k2 d7 k2 e3, PS)”, the target mRNA inhibition (HepG2, 3 µM) was 16%.

For the setting “HepG2, 5 µM”, “TGGATTCTTTTAATAGCCTC (sugars e5 d10 e5, PS)” gave a target mRNA inhibition of 13%. In the case of “GCTTCCCCACACCTTCA (sugars e3 k2 d7 k2 e3, PS)”, the target mRNA inhibition (HepG2, 3 µM) was found to be 36%.

Under “HepG2, 4 µM”, “ATCCAAGGGAATGTTTA (sugars e2 k2 d9 k2 e2, PS)” came in with a target mRNA inhibition of 39%. In the case of “TTACACCACAAGCCAAA (sugars e2 k2 d9 k2 e2, PS)”, the target mRNA inhibition (HepG2, 4 µM) came out at 63%. “AAGTGAGGACCTGCACT (sugars e3 k2 d7 k2 e3, PS)” yielded a target mRNA inhibition (HepG2, 3 µM) of 16%. For the sequence “AAATCAGTTTCTCACTACAG (sugars e5 d10 e5, PS)”, the target mRNA inhibition (HepG2, 5 µM) was found to be 0%. The sequence “GGCGATCCCAATTACAC (sugars e3 k2 d7 k2 e3, PS)” gave a target mRNA inhibition (HepG2, 3 µM) of 9%. “CGCTGCAGGAGACTACGACG (sugars e5 d10 e5, PS)” registered a target mRNA inhibition (HepG2, 4 µM) of 23%. Turning to “TCTTTGTCAGCAGTCACATT (sugars e5 d10 e5, PS)”, where the note is “HepG2, 5 µM”, the target mRNA inhibition is 20% and 11%. Regarding “ACTTTTAAGATTACAGTGTT (sugars e5 d10 e5, PS)”, the target mRNA inhibition (HepG2, 5 µM) was 24%.

Take “TTCTGCTCGAAATTGAT (sugars e3 k2 d7 k2 e3, PS)”: the target mRNA inhibition (HepG2, 3 µM) turned out to be 18%. For “GTCGCCCTTCAGCACGC (sugars e3 k2 d7 k2 e3, PS)”, the target mRNA inhibition (HepG2, 3 µM) turned out to be 28%.

Sequence “GCCCACTCTGGCCCCAA (sugars e3 k2 d7 k2 e3, PS)” gave a target mRNA inhibition (HepG2, 3 µM) of 22%.

As for “AGTTTAATACCCATCTG (sugars e3 k2 d7 k2 e3, PS)”, for the setting “HepG2, 3 µM”, the target mRNA inhibition was 10%. Consider “ATAGCCTCATAATAAGTGCC (sugars e5 d10 e5, PS)”, for which the target mRNA inhibition (HepG2, 5 µM) is 19%. Regarding “TGGGCGATCCCAATTAC (sugars e2 k2 d8 k2 e3, PS)”, the target mRNA inhibition (HepG2, 4 µM) is 19%. As for “TCAGCAGTCACATTGCCCAA (sugars e5 d10 e5, PS)”, under “HepG2, 5 µM”, the target mRNA inhibition was 52% and 42%. Regarding “CGCCATAACTCGCTAGGCCA (sugars e5 d10 e5, PS)”, under “HepG2, 4 µM”, the target mRNA inhibition was found to be 59%. For the setting “HepG2, 3 µM”, “GAGATCACAGAATCTTC (sugars e3 k2 d7 k2 e3, PS)” yielded a target mRNA inhibition of 13%. On to “AACTCGCTAGGCCACGCCGA (sugars e5 d10 e5, PS)”, for which, under “HepG2, 4 µM”, the target mRNA inhibition came out at 44%.

Regarding “GGATAACAGATGAGTTA (sugars e3 k2 d7 k2 e3, PS)”, the target mRNA inhibition (HepG2, 3 µM) amounted to 32%.

“AGACTACATCCAAGGGA (sugars e2 k2 d9 k2 e2, PS)” returned a target mRNA inhibition (HepG2, 4 µM) of 55%. The sequence “AATTACACCACAAGCCA (sugars e2 k2 d8 k2 e3, PS)” displayed a target mRNA inhibition (HepG2, 4 µM) of 62%. For the sequence “GGATAGAGGATTAAAGT (sugars e3 k2 d7 k2 e3, PS)”, for the setting “HepG2, 3 µM”, the target mRNA inhibition came out at 14%. Turning to “AGCAGGATAACAGATGAGTT (sugars e5 d10 e5, PS)”, the target mRNA inhibition amounted to 70% (HepG2, 4 µM) and 89% (HepG2, 12 µM). In the case of “CACAAGCCAAACGACTTCCA (sugars e5 d10 e5, PS)”, where the note is “HepG2, 5 µM”, the target mRNA inhibition is 47%. The sequence “GACTACATCCAAGGGAA (sugars e2 k2 d9 k2 e2, PS)” had a target mRNA inhibition (HepG2, 4 µM) of 57%. “GCGACTACTTTATAGGCCAG (sugars e5 d10 e5, PS)” registered a target mRNA inhibition (HepG2, 4 µM) of 19%. Turning to “TACAGTGTTTAATGTTTA (sugars e5 d8 e5, linkages s1 o3 s9 o2 s2)”, the target mRNA inhibition reads like this: (A431, 0.12 µM) 3%; (A431, 0.6 µM) 0%; (A431, 3 µM) 1%; (A431, 15 µM) 20%; (HepG2, 0.222 µM) 13%; (HepG2, 0.667 µM) 46%. In addition, the target mRNA inhibition is 70% (HepG2, 2 µM) and 57% (HepG2, 6 µM). In the case of “ATCCAAGGGAATGTTTA (sugars e2 k2 d8 k2 e3, PS)”, the target mRNA inhibition (HepG2, 4 µM) is 35%. Sequence “TAAGTGCCATACAGGGT (sugars e2 k2 d8 k2 e3, PS)” came in with a target mRNA inhibition (HepG2, 5 µM) of 26%.
